Test results from PMC6516043, “Functional Analysis of the Chemosensory Protein GmolCSP8 From the Oriental Fruit Moth, Grapholita molesta (Busck) (Lepidoptera: Tortricidae)” (Frontiers in Physiology, 2019).
Read-outs that look alike come from different tables or passages of the source.

How the values were obtained:
rGmolCSP8 [1] = biological target: T1, rGmolCSP8 (Grapholita molesta, UniProt A0A0M4FML8); assay: Fluorescence competitive binding assay (1-NPN displacement), wild-type; conditions: for binding to rGmolCSP8 (in words): wild-type rGmolCSP8, pH 7.4
T1 sequence (A0A0M4FML8 entry or part of it): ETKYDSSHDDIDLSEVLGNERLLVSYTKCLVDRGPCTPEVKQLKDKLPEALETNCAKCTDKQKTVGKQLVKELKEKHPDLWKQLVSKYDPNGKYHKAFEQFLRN
Protocol: The fluorescence spectra were recorded using a fluorescence spectrophotometer (F-4500, Hitachi, Tokyo, Japan) in a 1 cm light path fluorimeter quartz cuvette with 10 nm slits for excitation and 20 nm slits for emission. […] The fluorescent probe N-phenyl-1-naphthylamine (1-NPN) and all putative ligands used in binding assays were dissolved in methanol (HPLC purity grade) to obtain a 1 mM stock solution. The rGmolCSP8 protein was diluted to in 20 mM Tris–HCl to obtain a 2 μM solution, pH 7.4. […] The fluorescent probe was excited at 337 nm and emission spectra were recorded from 370 to 550 nm. […] Binding data were obtained from three replicates assays for each concentration of each tested ligand.

GmolCSP8-L30A = GmolCSP8-L30A (Grapholita molesta, UniProt A0A0M4FML8, L45A); assay: biochemical; assay type: binding
GmolCSP8-L30A, sequence (A0A0M4FML8 entry or part of it L45A): as the sequence (A0A0M4FML8 entry or part of it) above, with L30A counted along it
Protocol: (§1) To determine whether GmolCSP8 is involved in odorant binding, fluorescence competitive binding assays were performed ([Zhong et al., 2012]). The fluorescence spectra were recorded using a fluorescence spectrophotometer (F-4500, Hitachi, Tokyo, Japan) in a 1 cm light path fluorimeter quartz cuvette with 10 nm slits for excitation and 20 nm slits for emission. The selected chemicals are listed in Table 2, and included four sex pheromone components and 34 volatiles from different host plants (peach and pear trees) of G. molesta based on previous investigations ([Natale et al., 2004]; [Lu et al., 2012]; [Najar-Rodriguez et al., 2013b]). The fluorescent probe N-phenyl-1-naphthylamine (1-NPN) and all putative ligands used in binding assays were dissolved in methanol (HPLC purity grade) to obtain a 1 mM stock solution. The rGmolCSP8 protein was diluted to in 20 mM Tris–HCl to obtain a 2 μM solution, pH 7.4. To measure the binding affinity of 1-NPN for GmolCSP8, a 2 μM solution of protein was titrated with aliquots of 1 mM 1-NPN prepared to final concentrations ranging from 1 to 22 μM. The fluorescent probe was excited at 337 nm and emission spectra were recorded from 370 to 550 nm. […] Binding data were obtained from three replicates assays for each concentration of each tested ligand. Dissociation constants (Kd) of protein to 1-NPN were calculated by non-linear regression, using GraphPad Prism 4.00 software (GraphPad Software Inc.). The inhibition constants (Ki) of the competitors were determined using the corresponding IC50 values (concentration of competitor that reduced the initial fluorescence intensity by half) based on the following equation: Ki = [IC50]/(1+[1-NPN]/K1-NPN), where [1-NPN] is the free concentration of 1-NPN and K1-NPN is the dissociation constant of the complex GmolCSP8/1-NPN.
(§2) To verify the four predicted key amino acid sites of GmolCSP8 binding for 1-hexanol, recombinant plasmids for four CSP8 mutants were obtained via site-directed mutagenesis experiments. Specific primers introducing mutation sites of the four key amino acid CSP8 plasmids (GmolCSP8-T27A, GmolCSP8-L30A, GmolCSP8-V40A, and GmolCSP8-L80A) were designed and are listed in Table 1. The four mutants were mutated by using the TaKaRa MutanBEST Kit (TaKaRa, Shiga, Japan) with the pMD®19-T/GmolCSP8 plasmid DNA as template. All plasmids containing mutations were validated by sequencing with five randomly selected single colonies. pMD®19-T plasmids including four CSP8 mutants were digested with Bam HI and Hind III restriction enzymes. Then, the target sequences were ligated into the expression vector pET28a (+) and transformed into BL21 (DE3) competent cells for expression. After sequencing verification, the corresponding rGmolCSP8 mutant proteins were induced and purified, and the binding affinities to 1-hexanol and its analogs were verified via ligand-binding assays according to the method described above.

GmolCSP8-T27A = GmolCSP8-T27A (Grapholita molesta, UniProt A0A0M4FML8, T42A); assay: biochemical; assay type: binding
GmolCSP8-T27A, sequence (A0A0M4FML8 entry or part of it T42A): as the sequence (A0A0M4FML8 entry or part of it) above, with T27A counted along it
Protocol: as §1, §2

GmolCSP8-L80A = GmolCSP8-L80A (Grapholita molesta, UniProt A0A0M4FML8, L95A); assay: biochemical; assay type: binding
GmolCSP8-L80A, sequence (A0A0M4FML8 entry or part of it L95A): as the sequence (A0A0M4FML8 entry or part of it) above, with L80A counted along it
Protocol: as §1, §2

GmolCSP8-V40A = GmolCSP8-V40A (Grapholita molesta, UniProt A0A0M4FML8, V55A); assay: biochemical; assay type: binding
GmolCSP8-V40A, sequence (A0A0M4FML8 entry or part of it V55A): as the sequence (A0A0M4FML8 entry or part of it) above, with V40A counted along it
Protocol: as §1, §2

rGmolCSP8 [2] = biological target: T1, rGmolCSP8; assay: Effect of pH on the binding affinity of rGmolCSP8
Protocol: Based on the fluorescent binding assays described above, we further assessed the effects of pH on the binding abilities of GmolCSP8 with strongly bound ligand. The binding affinities of rGmolCSP8 to the representative ligand 1- hexanol were measured at six different pH values (4.0, 5.0, 6.8, 7.4, 8.0, and 8.8) in 20 mM Tris–HCl buffer. pH was adjusted by titrating concentrated hydrochloric acid using a PHS-3E pH meter (Shanghai Precision Scientific Instrument Co., Ltd., Shanghai, China). The binding assays and data processing were performed as described previously.
FIGURE 7 Effects of pH on the binding affinities of rGmolCSP8 with 1-hexanol. The mixture solution of 2 μM rGmolCSP8 protein and 2 μM 1-NPN was titrated with 1 mM 1-hexanol stock solution to final concentrations of 22 μM. All data represent a mean of three independent measurements, and the bars denote mean ± SEM.

[3] = 2 μM rGmolCSP8 and 2 μM 1-NPN, 20 mM Tris-HCl pH 7.4, read-out: IC50
[4] = 2 μM rGmolCSP8 and 2 μM 1-NPN, pH 7.4, calculated from IC50, read-out: Ki

| Compound | IC50 (rGmolCSP8 [1]; [3]) [µM] | Ki (rGmolCSP8 [1]; [4]) [µM] | binding to rGmolCSP8 (in words) (rGmolCSP8 [1]) | also measured |
| --- | --- | --- | --- | --- |
| CCCCCC(=O)OCCCC [Butyl hexanoate] | > 24 | > 24 | cannot bind | – |
| CCCC(=O)OCC [Ethyl butyrate] | > 24 | > 24 | – | – |
| CCCCCCC=O [Heptanal] | > 24 | > 24 | cannot bind | – |
| CC(=O)OCCC(C)C [Isoamyl acetate] | > 24 | > 24 | – | – |
| CC1=CCC2CC1C2(C)C (stereo not drawn) [α-Pinene] | > 24 | > 24 | cannot bind | – |
| CC(C)CCO [3-methyl-1-butanol] | 6.6 ± 0.45 | 6.32 ± 0.52 | – | – |
| CCCCCCCCCCCCCCCCCC [Octadecane] | > 24 | > 24 | – | – |
| CCCCCCCCCCCCCC [Tetradecane] | > 24 | > 24 | – | – |
| CCCCCCCCCC=O [Decanal] | > 24 | > 24 | – | – |
| CCCCCCCCCCCCCCCC [Hexadecane] | > 24 | > 24 | – | – |
| CCCCCCCCCCCCCCO [1-tetradecanol] | – | – | unable to bind | IC50 (rGmolCSP8 [1]): > 24 µM; Ki (rGmolCSP8 [1]): > 24 µM |
| CCCCCCO [1-hexanol] | – | – | strongest binding affinities | IC50 (rGmolCSP8 [1]): 2.26 ± 0.34 µM; Ki (GmolCSP8-L30A): 12.5 ± 1.12 µM; fold decrease in binding vs wild-type (GmolCSP8-L30A; mutant L30A compared with wild-type rGmolCSP8): 6 fold; IC50 (GmolCSP8-T27A): > 24 µM; binding to mutant T27A (in words) (GmolCSP8-T27A; mutant T27A compared with wild-type): abolished the ability to bind; Ki (GmolCSP8-T27A; read-out: Ki (μM) T27A, mutant T27A, – = did not displace 50% 1-NPN at ligand up to 24 μM): > 24 µM; Ki (GmolCSP8-L80A): 1.8 ± 0.15 µM; Ki (GmolCSP8-V40A): 2.67 ± 0.34 µM; binding affinity (in words) (rGmolCSP8 [2]; pH 4.0): very weak affinity; effect of pH on binding affinity (in words) (rGmolCSP8 [2]; pH 4.0, 5.0, 6.8, 7.4, 8.0, 8.8 in 20 mM Tris-HCl): higher at pH 6.8–8.0 than at pH 4.0–5.0 and 8.8; binding affinity (in words) (rGmolCSP8 [2]; pH 6.8–8.0): strong binding affinity |
| CCC/C=C\CCCCCCCOC(C)=O [(Z)-8-dodecenyl acetate] | > 24 | > 24 | – | – |
| CC/C=C\CC1C(=O)CCC1CC(=O)OC (centres unmarked) [Methyl jasmonate] | > 24 | > 24 | – | – |
| COC(=O)c1ccccc1O [Methyl salicylate] | > 24 | > 24 | – | – |
| N#Cc1ccccc1 [Benzonitrile] | > 24 | > 24 | cannot bind | – |
| CCCCCCOC(C)=O [Hexyl acetate] | > 24 | > 24 | – | – |
| CCC/C=C\CCCCCCCO [(Z)-8-dodecenyl alcohol] | > 24 | > 24 | – | – |
| CCCCCCCCCCCCCCC [Pentadecane] | > 24 | > 24 | – | – |
